Article PMC4185360 (Emerging Microbes & Infections, 2014)
Values joined by “and” are separate entries in the source; they are usually repeats but may differ in a detail not shown here. Equal values may be shown once. Where a name gives a salt, the structure may show the parent alone. Read-outs that look alike come from different tables or passages of the source.

Key:
EV71 [1] = assay: Antiviral potency assay, viral load by qRT-PCR in RD cells; format: cell-based; details: for IC90: read-out: IC90, EV71 replication (viral load by qRT-PCR)
coxsackievirus A16 = format: cell-based, Coxsackie virus A16 (strain shzh05-1); details: 50 µM
[2] = Cynomolgus monkey plasma pharmacokinetics; details: male, iv, 4.37 mg/kg; for AUC(0-inf): AUC0-inf; for AUC(0-t): AUC0-last; for clearance: Cl; for Vd: Vdss
EV71 particles = assay: STD NMR assay of binding to EV71 particles; details: inactivated, purified EV71; molar ratio 1:100
EV71 [3] = assay: Time-of-addition assay, single round viral replication in RD cells; format: cell-based; details: 10 µM
Procedure: Single round viral replication is get by infecting RD cell at multiplicity of infection of 5, collecting at 16 h post infection, and testing culture supernatant and intracellular RNA at 16 h post infection.
(A) Time of addition assay. The viral load in supernatant represents the means±s.e.m. of results of experiment with three replicates, and the intracellular viral load represents the result of a single test. […] Data represents the means±s.e.m. of results of experiment with three replications.

CYP2C9 [4] = molecular target: T1, CYP2C9 (Homo sapiens, UniProt P11712); assay: in vitro; details: microsomes
CYP2D6 [5] = molecular target: T2, CYP2D6 (Homo sapiens, UniProt P10635); assay: in vitro; details: human microsomes, probe marker substrate cocktail, O-demethylation (CYP2D6)
CYP2D6 [6] = molecular target: T2, CYP2D6; assay: biochemical
CYP1A2 = molecular target: T3, CYP1A2 (Homo sapiens, UniProt P05177); assay: in vitro; details: microsomes
T3 sequence (P05177 1-516): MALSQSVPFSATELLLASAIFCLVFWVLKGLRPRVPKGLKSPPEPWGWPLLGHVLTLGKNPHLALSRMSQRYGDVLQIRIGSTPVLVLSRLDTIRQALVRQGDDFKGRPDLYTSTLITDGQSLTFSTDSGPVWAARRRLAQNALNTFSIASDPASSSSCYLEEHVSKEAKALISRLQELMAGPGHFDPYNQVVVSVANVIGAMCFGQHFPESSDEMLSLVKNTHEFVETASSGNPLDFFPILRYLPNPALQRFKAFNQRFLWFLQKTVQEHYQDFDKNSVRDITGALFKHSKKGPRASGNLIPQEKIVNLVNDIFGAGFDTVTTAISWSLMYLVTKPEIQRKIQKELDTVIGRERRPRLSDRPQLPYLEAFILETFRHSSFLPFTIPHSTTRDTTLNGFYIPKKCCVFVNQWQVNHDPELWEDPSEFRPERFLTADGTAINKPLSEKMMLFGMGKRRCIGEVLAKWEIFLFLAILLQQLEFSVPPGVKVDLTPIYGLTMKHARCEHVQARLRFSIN

poliovirus-1 (Sabin) = format: cell-based; details: TCID50 reduction assay
CYP2C9 [7] = molecular target: T1, CYP2C9; assay: biochemical
[8] = cited from earlier work
[9] = source not given; cited from earlier work
EV71 [10] = assay: Viral attachment assay (cell-virus adsorption at 4°C); format: cell-based; details: Enterovirus A, incubated with cells and virus at 4°C, read-out: IC90, virus binding to the cell
[11] = tested on: mouse-adapted EV71 strain MP10; assay: In vivo anti-EV71 efficacy in 10-day-old ICR mice; details: lethal dose EV71 MP10
EV71 FY-23 = assay: In vivo anti-EV71 efficacy in adult rhesus monkeys; details: 50 mg/kg i.v. four times, between days 6 and 9 post-infection
CYP3A4 = CYP3A4 (Homo sapiens, UniProt P08684); assay: in vitro; details: human microsomes, probe marker substrate cocktail, 1′-hydroxylation (CYP3A4)
[12] = Enterovirus A, EV71 isolate Fuyang573, RD cells
[13] = mean of 3 monkeys, 4.37 mg/kg i.v. bolus
[14] = monkey P101, 4.37 mg/kg i.v. bolus
[15] = monkey P102, 4.37 mg/kg i.v. bolus
[16] = monkey P103, 4.37 mg/kg i.v. bolus

T1 sequence (P11712 whole entry): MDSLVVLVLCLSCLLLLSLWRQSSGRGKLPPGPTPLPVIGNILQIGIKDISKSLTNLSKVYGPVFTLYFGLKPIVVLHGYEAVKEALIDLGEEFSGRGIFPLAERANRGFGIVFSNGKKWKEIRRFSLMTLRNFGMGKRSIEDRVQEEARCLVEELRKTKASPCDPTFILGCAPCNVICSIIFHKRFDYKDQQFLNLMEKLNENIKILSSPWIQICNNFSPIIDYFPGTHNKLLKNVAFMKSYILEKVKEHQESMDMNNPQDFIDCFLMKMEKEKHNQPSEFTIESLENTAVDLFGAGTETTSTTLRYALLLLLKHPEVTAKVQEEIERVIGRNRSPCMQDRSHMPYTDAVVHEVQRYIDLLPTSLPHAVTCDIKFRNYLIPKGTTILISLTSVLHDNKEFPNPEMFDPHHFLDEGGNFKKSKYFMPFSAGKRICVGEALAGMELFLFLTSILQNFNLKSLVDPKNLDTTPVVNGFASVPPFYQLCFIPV
Sequence of CYP3A4 (P08684 whole entry): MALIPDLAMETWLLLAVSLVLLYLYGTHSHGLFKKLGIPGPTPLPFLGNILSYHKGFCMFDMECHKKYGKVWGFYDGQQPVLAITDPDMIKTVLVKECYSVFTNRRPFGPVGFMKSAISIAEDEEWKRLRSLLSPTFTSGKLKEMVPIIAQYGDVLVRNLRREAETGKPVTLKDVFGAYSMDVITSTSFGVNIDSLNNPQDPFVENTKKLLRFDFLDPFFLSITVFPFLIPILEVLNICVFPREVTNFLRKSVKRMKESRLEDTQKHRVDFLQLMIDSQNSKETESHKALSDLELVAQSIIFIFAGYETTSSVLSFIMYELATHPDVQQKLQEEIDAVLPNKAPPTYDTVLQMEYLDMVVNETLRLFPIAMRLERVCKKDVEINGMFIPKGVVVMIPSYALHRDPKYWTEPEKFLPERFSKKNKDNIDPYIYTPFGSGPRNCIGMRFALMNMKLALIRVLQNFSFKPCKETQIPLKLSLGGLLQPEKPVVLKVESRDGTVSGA
T2 sequence (P10635 whole entry): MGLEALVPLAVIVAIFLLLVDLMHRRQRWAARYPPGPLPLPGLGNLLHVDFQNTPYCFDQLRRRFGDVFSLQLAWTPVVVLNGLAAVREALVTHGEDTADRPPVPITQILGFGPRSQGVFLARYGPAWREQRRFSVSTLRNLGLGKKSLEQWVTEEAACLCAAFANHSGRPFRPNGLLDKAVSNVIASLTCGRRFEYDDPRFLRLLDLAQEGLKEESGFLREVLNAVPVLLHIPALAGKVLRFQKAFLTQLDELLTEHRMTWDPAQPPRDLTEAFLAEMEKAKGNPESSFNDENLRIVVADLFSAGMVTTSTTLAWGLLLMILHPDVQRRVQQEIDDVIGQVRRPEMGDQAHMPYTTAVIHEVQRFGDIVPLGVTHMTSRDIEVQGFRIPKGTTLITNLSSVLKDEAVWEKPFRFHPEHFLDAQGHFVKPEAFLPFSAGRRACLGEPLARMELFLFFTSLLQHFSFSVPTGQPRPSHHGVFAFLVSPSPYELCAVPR

Compound: O=S(=O)(O)c1cc(N=C=S)ccc1/C=C/c1ccc(N=C=S)cc1S(=O)(=O)O [DIDS, 4,4′-diisothiocyanatostilbene-2,2′-disulfonic acid disodium salt]
- IC90 (EV71 [1]; Enterovirus A, EV71, RD): 10.3 µM

Compound: O=C(Nc1cccc(C(=O)Nc2ccc(S(=O)(=O)O)c3cc(S(=O)(=O)O)cc(S(=O)(=O)O)c23)c1)Nc1cccc(C(=O)Nc2ccc(S(=O)(=O)O)c3cc(S(=O)(=O)O)cc(S(=O)(=O)O)c23)c1 [NF 023, 8,8′-[carbonylbis(imino-3,1-phenylenecarbonylimino)]bis-1,3,5-naphthalene-trisulphonic acid, hexasodium salt]
- IC90 (EV71 [1]; [12]): 8.9 µM

Compound: O=C(Nc1cc(C(=O)Nc2ccc(S(=O)(=O)O)cc2S(=O)(=O)O)cc(C(=O)Nc2ccc(S(=O)(=O)O)cc2S(=O)(=O)O)c1)Nc1cc(C(=O)Nc2ccc(S(=O)(=O)O)cc2S(=O)(=O)O)cc(C(=O)Nc2ccc(S(=O)(=O)O)cc2S(=O)(=O)O)c1 [NF 449, 4,4′,4″,4″′-[carbonylbis(imino-5,1,3-benzenetriyl-bis(carbonylimino))]tetrakis-1,3-benzenedisulfonic acid, octasodium salt]
- IC90 (EV71 [1]; [12]): 0.9 µM

Compound: Cc1nc(/N=N/c2ccc(S(=O)(=O)O)cc2S(=O)(=O)O)c(COP(=O)(O)O)c(C=O)c1O [PPADS, pyridoxal phosphate-6-azo (benzene-2,4-disulfonic acid) tetrasodium salt hydrate]
- IC90 (EV71 [1]; [12]): 7 µM

Compound: Cc1nc(/N=N/c2cc(S(=O)(=O)O)ccc2S(=O)(=O)O)c(COP(=O)(O)O)c(C=O)c1O [iso-PPADS, pyridoxalphosphate-6-azophenyl-2′,5′-disulfonic acid tetrasodium salt]
- IC90 (EV71 [1]; [12]): 6.4 µM

Compound: Cc1ccc(C(=O)Nc2ccc(S(=O)(=O)O)c3cc(S(=O)(=O)O)cc(S(=O)(=O)O)c23)cc1NC(=O)c1cccc(NC(=O)Nc2cccc(C(=O)Nc3cc(C(=O)Nc4ccc(S(=O)(=O)O)c5cc(S(=O)(=O)O)cc(S(=O)(=O)O)c45)ccc3C)c2)c1 [suramin, Suramin sodium salt]
- reduction of coxsackievirus A16 replication (coxsackievirus A16): 10^6 TCID50/mL
- AUC(0-inf) [2, 13]: 2330 µg·h/mL
- AUC(0-inf) [2, 14]: 1960 µg·h/mL
- AUC(0-inf) [2, 15]: 2400 µg·h/mL
- AUC(0-inf) [2, 16]: 2620 µg·h/mL
- AUC(0-t) [2, 13]: 1800 µg·h/mL
- AUC(0-t) [2, 14]: 1660 µg·h/mL
- AUC(0-t) [2, 15]: 1810 µg·h/mL
- AUC(0-t) [2, 16]: 1930 µg·h/mL
- C0 ([2]; C0, mean of 3 monkeys, 4.37 mg/kg i.v. bolus): 128 µg/mL
- C0 ([2]; C0, monkey P101, 4.37 mg/kg i.v. bolus): 143 µg/mL
- C0 ([2]; C0, monkey P102, 4.37 mg/kg i.v. bolus): 96.3 µg/mL
- C0 ([2]; C0, monkey P103, 4.37 mg/kg i.v. bolus): 146 µg/mL
- clearance [2, 13]: 1.9 mL/h/kg
- clearance [2, 14]: 2.23 mL/h/kg
- clearance [2, 15]: 1.82 mL/h/kg
- clearance [2, 16]: 1.67 mL/h/kg
- Cmax [2, 13]: 142 µg/mL
- Cmax [2, 14]: 169 µg/mL
- Cmax [2, 15]: 117 µg/mL
- Cmax [2, 16]: 141 µg/mL
- half-life ([2]; T1/2, mean of 3 monkeys, 4.37 mg/kg i.v. bolus): 104 h
- half-life ([2]; T1/2, monkey P101, 4.37 mg/kg i.v. bolus): 69.1 h
- half-life ([2]; T1/2, monkey P102, 4.37 mg/kg i.v. bolus): 112 h
- half-life ([2]; T1/2, monkey P103, 4.37 mg/kg i.v. bolus): 130 h
- Tmax [2, 13]: 3.6 min
- Tmax [2, 14]: 4.8 min
- Tmax [2, 15]: 4.8 min
- Tmax [2, 16]: 1.8 min
- Vd [2, 13]: 0.199 L/kg
- Vd [2, 14]: 0.176 L/kg
- Vd [2, 15]: 0.212 L/kg
- Vd [2, 16]: 0.21 L/kg
- STD NMR signals with EV71 particles (EV71 particles): strong STD NMR signals
- effect on viral replication (EV71 [3]; added after adsorption): no effect
- decrease of viral replication (EV71 [3]; added at the virus-cell adsorption stage): > 1 log10
- inhibition at 10 min, 10 µM (CYP2C9 [4]): 0%
- inhibition at 10 min, 30 µM (CYP2C9 [4]): 8%
- inhibition at 10 min, 100 µM (CYP2C9 [4]): 32%
- inhibition at 10 min, 10 µM (CYP2D6 [5]): 7%
- inhibition at 10 min, 30 µM (CYP2D6 [5]): 40%
- inhibition at 10 min, 100 µM (CYP2D6 [5]): 49%
- IC50 (CYP2D6 [6]): > 100 µM (2×) and 45.5 µM
- inhibition at 10 min, 10 µM (CYP1A2): 40%
- inhibition at 10 min, 30 µM (CYP1A2): 70%
- inhibition at 10 min, 100 µM (CYP1A2): 89%
- inhibition of poliovirus-1 (Sabin) (poliovirus-1 (Sabin)): not inhibited
- IC50 (CYP2C9 [7]): > 100 µM
- half-life [8]: long
- serum protein binding [9]: high levels
- IC90 (EV71 [10]): 6.17 µM
- survival rate ([11]; 50 mg/kg i.p. twice daily for 7 days): 30%
- decrease of mortality ([11]; mice): 30%
- viral genomic RNA in serum (EV71 FY-23): < 20 copies of viral genomic RNA/mL
- inhibition at 10 min, 10 µM (CYP3A4): 5%
- inhibition at 10 min, 30 µM (CYP3A4): 16%
- inhibition at 10 min, 100 µM (CYP3A4): 34%

Compound: Sucralfate sodium
- IC90 (EV71 [1]; EV71 isolate Fuyang573, RD cells): 3.3 µM

Compound: heparin sodium salt
- IC90, EV71 replication (EV71 [1]): 24.3 µg/mL
